Assays:
Format in all cases: in vivo
Scirpus juncoides [1] = experiment: Test Example 12: herbicidal effect test by treatment during growing period in paddy field; details: 120 g/10a; treatment seven days after sowing in flooded paddy pot; assessed 14 days after treatment
Summary of the method: (§1)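 Growing-period treatment in flooded paddy pots: the diluted emulsifiable concentrate was dripped in at 120 g a.i. per 10 are seven days after seeding. Inhibition is expressed as percent reduction in dry weight versus untreated pots, measured 14 days later in duplicate.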

Echinochloa crus-galli [2] = experiment: as above; details: 120 g/10a; treatment seven days after sowing in flooded paddy pot; assessed 14 days after treatment
Summary of the method: as §1

Monochoria vaginalis [3] = experiment: as above; details: 120 g/10a; treatment seven days after sowing in flooded paddy pot; assessed 14 days after treatment
Summary of the method: as §1

Lindernia pyxidaria [4] = experiment: as above; details: 120 g/10a; treatment seven days after sowing in flooded paddy pot; assessed 14 days after treatment
Summary of the method: as §1

Amaranthus viridis [5] = experiment: Test Example 14: herbicidal effect test by foliage treatment in upland field; details: 7 days after sowing, 120 g/10a, 14 days after treatment
Summary of the method: (§2)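 Post-sowing spray at day 7, 120 g a.i./10 are in 100 L water/10 are; alluvial soil pots, duplicate plots; endpoint day 14, % suppression from dry weight relative to untreated.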

Echinochloa crus-galli [6] = experiment: as above; details: 7 days after sowing, 120 g/10a, 14 days after treatment
Summary of the method: as §2

Amaranthus viridis [7] = experiment: Test Example 13: herbicidal effect test by soil treatment in upland field; details: 120 g/10a, 14 days after treatment
Summary of the method: (§3)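 Field alluvial soil in 36 cm^2 pots had 20 seeds of each weed mixed into its top 1 cm. One day after sowing, a water-diluted emulsifiable concentrate was sprayed onto the soil at 100 liter per 10 are (120 g active ingredient per 10 are), with two replicates. Weed suppression (%) was assessed after 14 days.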

Echinochloa crus-galli [8] = experiment: as above; details: 120 g/10a, 14 days after treatment
Summary of the method: as §3

Chenopodium album [9] = experiment: as above; details: 120 g/10a, 14 days after treatment
Summary of the method: as §3

crabgrass [10] = experiment: as above; details: 120 g/10a, 14 days after treatment
Summary of the method: as §3

Scirpus juncoides [11] = experiment: Test Example 11: herbicidal effect test by soil treatment in paddy field; details: 120 g/10a active ingredient, 14 days after treatment
Summary of the method: (§4)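 Puddled paddy soil with N:P:K 17:17:17 fertilizer in Wagner pots; 30 seeds per species sown at 0–1 cm, flooded to about 3 cm, kept in a glass greenhouse. Water-diluted emulsifiable concentrate dripped in immediately after sowing at 120 g a.i. per 10 are. Suppression from dry weight versus untreated at 14 days.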

Echinochloa crus-galli [12] = experiment: as above; details: 120 g/10a active ingredient, 14 days after treatment
Summary of the method: as §4

Monochoria vaginalis [13] = experiment: as above; details: 120 g/10a active ingredient, 14 days after treatment
Summary of the method: as §4

Lindernia pyxidaria [14] = experiment: as above; details: 120 g/10a active ingredient, 14 days after treatment
Summary of the method: as §4

Chenopodium album [15] = experiment: Test Example 14: herbicidal effect test by foliage treatment in upland field; details: 7 days after sowing, 120 g/10a, 14 days after treatment
Summary of the method: as §2

crabgrass [16] = experiment: as above; details: 7 days after sowing, 120 g/10a, 14 days after treatment
Summary of the method: as §2

| Structure (SMILES) | Weed suppression rate (%) Scirpus juncoides (Scirpus juncoides [1]) | Weed suppression rate (%) Echinochloa crus-galli (Echinochloa crus-galli [2]) | Weed suppression rate (%) Monochoria vaginalis (Monochoria vaginalis [3]) | Weed suppression rate (%) Lindemia pyxidaria (Lindernia pyxidaria [4]) | herbicidal effect, Amaranthus viridis (Amaranthus viridis [5]) | herbicidal effect, Echinochloa crus-galli (Echinochloa crus-galli [6]) | herbicidal effect, Amaranthus viridis (Amaranthus viridis [7]) | herbicidal effect, Echinochloa crus-galli (Echinochloa crus-galli [8]) | herbicidal effect, Chenopodium album (Chenopodium album [9]) | herbicidal effect, Crabgrass (crabgrass [10]) | Weed suppression rate (%) Scirpus juncoides (Scirpus juncoides [11]) | Weed suppression rate (%) Echinochloa crus-galli (Echinochloa crus-galli [12]) | Weed suppression rate (%) Monochoria vaginalis (Monochoria vaginalis [13]) | Weed suppression rate (%) Lindemia pyxidaria (Lindernia pyxidaria [14]) | herbicidal effect, Chenopodium album (Chenopodium album [15]) | herbicidal effect, Crabgrass (crabgrass [16]) |
| --- | --- | --- | --- | --- | --- | --- | --- | --- | --- | --- | --- | --- | --- | --- | --- | --- |
| CC(C)N(C(=O)n1cnn(S(=O)(=O)C(C)C)c1=O)c1ccc(F)cc1F [Compound 11-59] | 90% | 100% | 100% | 80% | 90% | 80% | 90% | 100% | 100% | 100% | 100% | 100% | 100% | 100% | 80% | 90% |
| CC(C)N(C(=O)n1cnn(S(=O)(=O)C(C)C)c1=O)c1c(F)cccc1F [Compound 11-61] | 80% | 100% | 100% | 100% | 70% | 100% | 90% | 100% | 80% | 100% | 100% | 100% | 80% | 100% | 70% | 100% |
| CC(C)N(C(=O)n1cnn(S(=O)(=O)C(C)C)c1=O)c1ccc(F)c(F)c1F [Compound 11-62] | 100% | 100% | 100% | 80% | 100% | 100% | 100% | 70% | 60% | 70% | 100% | 100% | 90% | 100% | 90% | 100% |
| CC(C)N(C(=O)n1cnn(S(=O)(=O)C(C)C)c1=O)c1c(F)cc(F)cc1F [Compound 11-63] | 100% | 100% | 100% | 80% | 60% | 100% | 90% | 100% | 90% | 100% | 100% | 100% | 100% | 100% | 70% | 100% |
| CC(C)N(C(=O)n1cnn(S(=O)(=O)C(C)C)c1=O)c1c(F)c(F)cc(F)c1F [Compound 11-64] | 100% | 100% | 90% | 80% | 60% | 90% | 60% | 100% | 60% | 100% | 100% | 100% | 90% | 100% | 60% | 100% |

Reference: patent publication US11076595B2, “1-(n,n-disubstituted carbamoyl) 4-(substituted sulfonyl)triazolin-5-one derivative, 4-(n,n-disubstituted carbamoyl) 1-(substituted sulfonyl)triazolin-5-one derivative, and herbicide containing said derivative as active ingredient” (HOKKO CHEMICAL INDUSTRY CO., LTD., priority 2017, dated 2021)
